According to PubChem BioAssay (NCI):
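Dose response: 5 concentrations. Exposure: 48 h. Format: 96-well plates. Endpoint: linear interpolation; highest concentration if not reached. The concentration for full growth arrest is given as TGI.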

What was measured:
Test in all cases: NCI anticancer screen, dose series, 48 h
SK-MEL-28 melanoma = test system: SK-MEL-28 melanoma
OVCAR-4 ovarian = test system: OVCAR-4 ovarian
SN12C renal = test system: SN12C renal
NCI-H23 lung = test system: NCI-H23 lung
MDA-MB-231 breast = test system: MDA-MB-231 breast
MDA-MB-435 = test system: MDA-MB-435
NCI/ADR-RES ovarian = test system: NCI/ADR-RES ovarian
ACHN renal = test system: ACHN renal
OVCAR-3 ovarian = test system: OVCAR-3 ovarian
HCT-116 colon = test system: HCT-116 colon

SMILES	TGI (SK-MEL-28 melanoma) [µM]	TGI (OVCAR-4 ovarian) [µM]	TGI (SN12C renal) [µM]	TGI (NCI-H23 lung) [µM]	TGI (MDA-MB-231 breast) [µM]	TGI (MDA-MB-435) [µM]	TGI (NCI/ADR-RES ovarian) [µM]	TGI (ACHN renal) [µM]	TGI (OVCAR-3 ovarian) [µM]	TGI (HCT-116 colon) [µM]
CCC1CCC2c3c([nH]c4ccccc34)C3C(=O)N(c4ccc(OC)cc4)C(=O)C3C2C1 (stereo not given)	> 100	36	> 100	> 100	> 100	> 100	> 100	> 100	41.9	> 100
COC(=O)C[C@H](CCSC)NC(=O)C[C@H](CCSC)NC(=O)C[C@H](CCSC)NC(=O)OC(C)(C)C	> 100	55.9	> 100	> 100	> 100	> 100	> 100	> 100	48	> 100
COc1ccc(N2C(=O)/C(=C/c3ccc(N(CCC#N)CCC#N)cc3)N=C2c2ccccc2)c(OC)c1	> 100	> 100	> 100	> 100	> 100	> 100	> 100	> 100	> 100	> 100
COc1ccc(C2NC(=O)Nc3c2c(=O)oc2c3ccc3ccccc32)cc1 (stereo not given)	> 100	> 100	> 100	> 100	> 100	> 100	> 100	> 100	> 100	> 100
CCCCCCCCC[n+]1cccc(C2C(C(=O)OCC)=C(C)NC(C)=C2C(=O)OCC)c1	7.28	21.1	17.5	17.8	10.9	4.48	> 100	28.5	11.8	30.5
Cn1c(=O)c2[nH]c(CCC(=O)O)nc2n(C)c1=O	> 100	> 100	> 100	> 100	> 100	> 100	> 100	> 100	> 100	> 100
COC1=CC(=O)c2c(cc(COP(=O)(N(C)CCBr)N(C)CCBr)n2C)C1=O	3.51	20.4	3.76	2.28	15.3	2.35	16.7	0.492	10.7	4.85
O=C(Nc1nc(C23CC4CC(CC(C4)C2)C3)cs1)c1cc2cc([N+](=O)[O-])ccc2oc1=O	> 100	44.8	> 100	> 100	> 100	> 100	> 100	> 100	> 100	> 100
O=C(NCc1ccccc1)c1c(O)c2ccccc2[nH]c1=O	> 100	> 100	> 100	> 100	> 100	> 100	> 100	> 100	> 100	> 100
COC(=O)c1c(C#C[Si](C)(C)C)c(C#C[Si](C)(C)C)c(C#C[Si](C)(C)C)c(C#C[Si](C)(C)C)c1C(=O)OC	> 100	> 100	> 100	> 100	> 100	> 100	> 100	> 100	> 100	> 100
c1ccc2c(c1)c1c3n2-c2cc(on2)C3CCC1 (stereo not given)	> 100	> 100	> 100	> 100	> 100	> 100	> 100	> 100	> 100	> 100
COc1cccc(C2CC(=O)c3cccn32)c1 (stereo not given)	> 100	> 100	> 100	> 100	> 100	> 100	> 100	> 100	> 100	> 100
O=c1oc2ccccc2c(O)c1Cc1cccc(Cc2c(O)c3ccccc3oc2=O)c1	> 100	> 100	> 100	> 100	> 100	> 100	> 100	> 100	> 100	> 100
C=C(C(=O)OC)[C@H]1CC/C(C)=C/CC/C(C)=C/CC[C@@]2(C)O[C@@H]2C1	> 100	> 100	31.2	68.1	33.6	58.5	52.1	34.5	34.4	28.7
COC(=O)C1[C@H](C(=O)OC)C1(Br)CBr (stereo not given in full)	> 100	> 100	> 100	> 100	> 100	> 100	> 100	> 100	> 100	> 100
Cc1ccc(S(=O)(=O)N2CCN(CCO)CCN(S(=O)(=O)c3ccc(C)cc3)CCN(CCO)CC2)cc1	30.2	37.6	> 100	45.9	48.4	29.2	38.3	90.9	44.5	29.1
CCOC(=O)C1=C(C)N(c2ccc(C)cc2)C2(O)C=CC(=O)C3=C(O)c4ccccc4C(=O)C312 (stereo not given)	60.2	90.9	> 100	> 100	> 100	> 100	> 100	50.1	> 100	> 100
O=S(=O)(O)c1ccc(Nc2ccnc3cc(Cl)ccc23)cc1	> 100	> 100	> 100	> 100	> 100	> 100	> 100	> 100	> 100	> 100
